Source: article PMC7058083, “Structural basis of ligand binding modes at the human formyl peptide receptor 2” (Nature Communications, 2020)
Residue numbers refer to the chain shown, from its start. Residues, ends and D or L forms follow the SMILES beside them. *: point of attachment. For = O=C*

Assays:
Assay in all cases: Competition binding of fMLFK with WK(FITC)YMVm, flow cytometry on HEK293F cells
[1] = biological target: T1, wild-type (WT) and mutant FPR2 (Homo sapiens, UniProt P25090, D281G); settings: FPR2 D281G; mean ± s.e.m., n=3; SEM
T1 construct: expressed in transfected cells; host or cells: HEK293F
T1 sequence (P25090 1-351 D281G): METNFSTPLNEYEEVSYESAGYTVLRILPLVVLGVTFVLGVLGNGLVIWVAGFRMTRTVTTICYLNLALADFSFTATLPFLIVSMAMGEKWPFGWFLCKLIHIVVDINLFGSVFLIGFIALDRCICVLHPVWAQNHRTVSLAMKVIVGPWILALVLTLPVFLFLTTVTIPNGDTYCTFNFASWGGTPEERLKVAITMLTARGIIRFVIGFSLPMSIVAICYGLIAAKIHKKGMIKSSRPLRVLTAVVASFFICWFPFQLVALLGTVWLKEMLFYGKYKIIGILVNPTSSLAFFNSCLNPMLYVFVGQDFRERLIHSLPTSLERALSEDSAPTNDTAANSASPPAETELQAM
Experimental: (§1) Flag-tagged wild-type and mutant FPR2s were cloned into the pTT5 vector and expressed in HEK293F cells. The cells were harvested, and washed with Hanks’ Balanced Salt Solution (HBSS) buffer supplemented with 0.5% bovine serum albumin and 20 mM HEPES, pH 7.4. The cells were then resuspended in the same buffer to the final concentration of 1 × 10^6 cells per ml. The cell-surface expression was measured as mentioned above. […] Mean fluorescent intensity of each well was then read by a FCM (flow cytometry) reader (Millipore). […] For competitive binding of fMLFK, cells were plated in 96-well plates (100,000 cells per well), and incubated with WK(FITC)YMVm at 4 °C for 1 h. The following concentrations of WK(FITC)YMVm were used: 10 nM (wild type, L81^2.60F, E89G, and V105^3.32A), 30 nM (D281^7.32G), 40 nM (H102^3.29F, V160^4.60A, L268^ECL3A, N285^7.36A, and F292^7.43A), and 100 nM (L164^4.64A and T177A). Then increasing concentrations of fMLFK (100 nM–1 mM) were added, and incubated for another 1 h on ice. Mean fluorescent intensity values were measured by flow cytometry. Data were analyzed using Prism 7.0.

[2] = biological target: T2, wild-type (WT) and mutant FPR2 (Homo sapiens, UniProt P25090, N285A); settings: FPR2 N285A; mean ± s.e.m., n=3; SEM
T2 construct: expressed in transfected cells; host or cells: HEK293F
T2 sequence (P25090 1-351 N285A): T1 sequence (P25090 1-351 D281G) with G281D, N285A
Experimental: as §1

[3] = biological target: T3, wild-type (WT) and mutant FPR2 (Homo sapiens, UniProt P25090, F292A); settings: FPR2 F292A; mean ± s.e.m., n=3; SEM
T3 construct: expressed in transfected cells; host or cells: HEK293F
T3 sequence (P25090 1-351 F292A): T1 sequence (P25090 1-351 D281G) with G281D, F292A
Experimental: as §1

[4] = biological target: T4, wild-type (WT) and mutant FPR2 (Homo sapiens, UniProt P25090, V160A); settings: FPR2 V160A; mean ± s.e.m., n=3; SEM
T4 construct: expressed in transfected cells; host or cells: HEK293F
T4 sequence (P25090 1-351 V160A): T1 sequence (P25090 1-351 D281G) with V160A, G281D
Experimental: as §1

[5] = biological target: T5, wild-type (WT) and mutant FPR2 (Homo sapiens, UniProt P25090, H102F); settings: FPR2 H102F; mean ± s.e.m., n=3; SEM
T5 construct: expressed in transfected cells; host or cells: HEK293F
T5 sequence (P25090 1-351 H102F): T1 sequence (P25090 1-351 D281G) with H102F, G281D
Experimental: as §1

CSCC[C@H](NC=O)C(=O)N[C@@H](CC(C)C)C(=O)N[C@@H](Cc1ccccc1)C(=O)N[C@@H](CCCCN)C(=O)O [fMLFK] (For-MLFK-OH)
pKi, competition binding [1]: 4.66 ± 0.16
pKi, competition binding [2]: 3.75 ± 0.16
pKi, competition binding [3]: 4.54 ± 0.11
pKi, competition binding [4]: 4.16 ± 0.14
pKi, competition binding [5]: 3.85 ± 0.24
